# Test results: patent US10822337B2, “TGF-β inhibitorC” (Rigel Pharmaceuticals, Inc., priority 2015, dated 2020)
# Key:
# [1] = tested on: TGF-β signaling (TGF-β pSMAD, MPC-11); test: AlphaScreen SureFire SMAD3 (p-Ser423/425) assay, inhibition of TGF-β signaling; type: cell-based; settings: Mus musculus, p-SMAD-3 (Ser423/425) in cell lysate after TGF-β stimulation
# Source text: (§1) Example 2: AlphaScreen® SureFire® SMAD3 (p-Ser423/425) Assay
# (§2) The p-SMAD-3 (Ser423/425) SureFire® assay has been designed to measure the phosphorylation of endogenous cellular p-SMAD-3 (Ser423/425) in cell lysates and is a system for the screening of both modulators of receptor activation (e.g. agonists and antagonists) as well as agents acting intracellularly, such as small molecule inhibitors of upstream events. The assay will measure p-SMAD-3 (Ser423/425) activation by either cloned or endogenous receptors, and can be applied to primary cells.
# (§3) 1× Lysis buffer: 1 ml of 5× Lysis buffer was diluted with 4 ml of sterile water. After dilution, excess 1× Lysis buffer can be frozen and thawed up to 5 times without loss in activity.
# (§4) P-SMAD-3 (Ser423/425) SureFire® Assay Protocols
# (§5) Step A: Preparation of Buffers
# (§6) Activation buffer: The buffer was warmed slowly to 37° C. and gently mixed to re-suspend. Activation buffer can be stored at room temperature with no loss in activity.
# (§7) Reaction buffer: The buffer was kept at 4° C. while in use.
# (§8) AlphaScreen® Protein A IgG Kit: The kit was stored at 4° C. in the dark.
# (§9) Reaction buffer+Activation buffer+AlphaScreen® Acceptor beads: Reaction buffer (40 parts), Activation Buffer (10 parts) and Acceptor beads (1 part) were mixed and the mixture was stored at room temperature and used the same day. Mixture was added to 384-well plates; excess mixturewas discarded.
# (§10) Dilution buffer+AlphaScreen® Donor beads: Dilution buffer (20 parts) and Donor beads (1 part) were mixed and the mixture was stored at room temperature and used the same day. Excess mixture was discarded.
# (§11) Assay control samples: After reconstitution in 250 μl of water, lysates were at −20° C. in single use aliquots.
# (§12) Step B: Preparation of Samples and Cells
# (§13) 96-well Assay Protocol for 293FT and RMS13 adherent cells can be carried out manually or in high throughput with liquid handling robots.
# (§14) The cells (80 μL of cells for 96 well plates) were plated in collagen coated tissue culture plates in RPMI or FreeStyle medium (Invitrogen) and incubated overnight. For manual analysis, 6 plates for GDF8, 6 plates for TGFβ, and optionally 6 plates for Alk5ca(ALKS constitutively active) were used.
# (§15) The compound dilution plates were prepared as follows: 12 μL of DMSO was transferred into first column of 96-well plate, and 16 μL of DMSO was transferred into columns 2-12 of the 96-well plate. 12 μL of compound solution was transferred into first column of the DMSO-containing 96-well plate. Three-fold dilution was performed up to column 10 of the DMSO-containing 96-well plate.
# (§16) Step C: Treatment and Analysis
# (§17) The plate containing cells were treated with compounds for about 10 minutes, and then ligand was added. GDF8 or TGFb was added to plates to stimulate. 293FL cells were stimulatedfor 90 minutes at 37° C.; and RMS13 cells were stimulated for 60 minutes at 37° C. The medium was then removed from the cells, and 1× Lysis Buffer (about 25 μL) was added and the plate was gently agitated on plate shaker for 5-10 minutes.
# (§18) The lysate (5 μL) was then placed into 384-well shallow plates avoiding the generation of bubbles. To this, the Reaction Buffer+Activation Buffer+AlphaScreen® Acceptor beadsmixture (5 μL) was added. The plate was sealed with adhesive cover and shielded from light (e.g., with metal foil), and agitated gently on plate shaker for 2 hours at room temperature.
# (§19) Dilution buffer+AlphaScreen® Donor beads (2 μL) was then added, and the plate was intubated on the plate shaker for an additional 1½ hours. After completion, the plate was read on Synergy-4 or Enspire plate reader, using AlphaScreen® pSMAD3® settings.
# (§20) Representative results for inhibition of GDF8 (data=GDF pSMAD (MPC11) (μM)) and TGF-β (data=TGF-β pSMAD (MPC-11) (μM)) signaling are shown in Table 1: […]
# [2] = tested on: GDF8 signaling (GDF pSMAD, MPC11); test: AlphaScreen SureFire SMAD3 (p-Ser423/425) assay, inhibition of GDF8 signaling; type: cell-based; settings: Mus musculus, MPC-11, p-SMAD-3 (Ser423/425) in cell lysate after GDF8 stimulation
# Source text: as §1, §2, §3, §4, §5, §6, §7, §8, §9, §10, §11, §12, §13, §14, §15, §16, §17, §18, §19, §20
Compound,IC50 [1],IC50 [2]
"Fc1ccc(F)c(-c2nn3c(c2-c2ccc4[nH]ncc4c2)CCC3)c1 [Compound 1, 5-(2-(2,5-difluorophenyl)-5,6-dihydro-4H-pyrrolo[1,2-b]pyrazol-3-yl)-1H-indazole]",2.03 µM,0.592 µM
"Cc1cc(-c2nn3c(c2-c2ccc4[nH]ncc4c2)CCC3)ccc1F [Compound 2, 5-(2-(4-Fluoro-3-methylphenyl)-5,6-dihydro-4H-pyrrolo[1,2-b]pyrazol-3-yl)-1H-indazole]",0.14 µM,0.045 µM
"Cc1cc(-c2nn3c(c2-c2ccc4cn[nH]c4c2)CCC3)ccc1F [Compound 3, 6-(2-(4-Fluoro-3-methylphenyl)-5,6-dihydro-4H-pyrrolo[1,2-b]pyrazol-3-yl)-1H-indazole]",0.231 µM,0.0641 µM
"Cc1cc(-c2nn3c(c2-c2ccnc4[nH]ccc24)CCC3)ccc1F [Compound 4, 4-(2-(4-Fluoro-3-methylphenyl)-5,6-dihydro-4H-pyrrolo[1,2-b]pyrazol-3-yl)-1H-pyrrolo[2,3-b]pyridine]",1.05 µM,0.604 µM
"Fc1ccc(-c2nn3c(c2-c2ccc4[nH]ncc4c2)CCC3)cc1 [Compound 5, 5-(2-(4-Fluorophenyl)-5,6-dihydro-4H-pyrrolo[1,2-b]pyrazol-3-yl)-1H-indazole]",0.5 µM,0.129 µM
"Fc1ccc(-c2nn3c(c2-c2ccc4cn[nH]c4c2)CCC3)cc1 [Compound 6, 6-(2-(4-Fluorophenyl)-5,6-dihydro-4H-pyrrolo[1,2-b]pyrazol-3-yl)-1H-indazole]",1.04 µM,0.2 µM
"Cc1cccc(-c2nn3c(c2-c2ccc4[nH]ncc4c2)CCC3)c1 [Compound 7, 5-(2-(m-Tolyl)-5,6-dihydro-4H-pyrrolo[1,2-b]pyrazol-3-yl)-1H-indazole]",0.0397 µM,0.0151 µM
"Cc1cccc(-c2nn3c(c2-c2ccc4cn[nH]c4c2)CCC3)c1 [Compound 8, 6-(2-(m-Tolyl)-5,6-dihydro-4H-pyrrolo[1,2-b]pyrazol-3-yl)-1H-indazole]",0.0794 µM,0.0213 µM
"Cc1cc(-c2nn3c(c2-c2ccc4nc[nH]c4c2)CCC3)ccc1F [Compound 9, 6-(2-(4-Fluoro-3-methylphenyl)-5,6-dihydro-4H-pyrrolo[1,2-b]pyrazol-3-yl)-1H-benzo[d]imidazole]",0.152 µM,0.0515 µM
"Cc1cccc(-c2nn3c(c2-c2ccc4c(cnn4C)c2)CCC3)c1 [Compound 10, 1-Methyl-5-(2-(m-tolyl)-5,6-dihydro-4H-pyrrolo[1,2-b]pyrazol-3-yl)-1H-indazole]",2.59 µM,0.643 µM
"Cc1cccc(-c2nn3c(c2-c2ccc4ncsc4c2)CCC3)c1 [Compound 12, 6-(2-(m-Tolyl)-5,6-dihydro-4H-pyrrolo[1,2-b]pyrazol-3-yl)benzo[d]thiazole]",0.117 µM,0.0468 µM
"Cn1cnc2ccc(-c3c(-c4ccc(F)cc4)nn4c3CCC4)cc21 [Compound 13, 6-(2-(4-Fluorophenyl)-5,6-dihydro-4H-pyrrolo[1,2-b]pyrazol-3-yl)-1-methyl-1H-benzo[d]imidazole]",0.182 µM,0.0796 µM
"Fc1ccc(-c2nn3c(c2-c2ccc4ncsc4c2)CCC3)cc1 [Compound 14, 6-(2-(4-Fluorophenyl)-5,6-dihydro-4H-pyrrolo[1,2-b]pyrazol-3-yl)benzo[d]thiazole]",0.976 µM,0.295 µM
"Cc1cc(-c2nn3c(c2-c2ccc4c(cnn4C)c2)CCC3)ccc1F [Compound 15, 5-(2-(4-Fluoro-3-methylphenyl)-5,6-dihydro-4H-pyrrolo[1,2-b]pyrazol-3-yl)-1-methyl-1H-indazole]",2.73 µM,0.987 µM
"Cc1cc(-c2nn3c(c2-c2ccc4ncn(C)c4c2)CCC3)ccc1F [Compound 16, 6-(2-(4-Fluoro-3-methylphenyl)-5,6-dihydro-4H-pyrrolo[1,2-b]pyrazol-3-yl)-1-methyl-1H-benzo[d]imidazole]",0.132 µM,0.065 µM
"Cc1cc(-c2nn3c(c2-c2ccc4ncsc4c2)CCC3)ccc1F [Compound 17, 6-(2-(4-Fluoro-3-methylphenyl)-5,6-dihydro-4H-pyrrolo[1,2-b]pyrazol-3-yl)benzo[d]thiazole]",0.375 µM,0.122 µM
"Cc1cccc(-c2nn3c(c2-c2ccc4nccn4c2)CCC3)c1 [Compound 18, 6-(2-(m-Tolyl)-5,6-dihydro-4H-pyrrolo[1,2-b]pyrazol-3-yl)imidazo[1,2-a]pyridine]",0.369 µM,0.065 µM
"Fc1ccc(-c2nn3c(c2-c2ccc4nccn4c2)CCC3)cc1 [Compound 19, 6-(2-(4-Fluorophenyl)-5,6-dihydro-4H-pyrrolo[1,2-b]pyrazol-3-yl)imidazo[1,2-a]pyridine]",1.77 µM,0.309 µM
"Cc1cc(-c2nn3c(c2-c2ccc4nccn4c2)CCC3)ccc1F [Compound 20, 6-(2-(4-Fluoro-3-methylphenyl)-5,6-dihydro-4H-pyrrolo[1,2-b]pyrazol-3-yl)imidazo[1,2-a]pyridine]",0.366 µM,0.121 µM
"COc1cccc(-c2nn3c(c2-c2ccc4nccn4c2)CCC3)c1 [Compound 21, 6-(2-(3-Methoxyphenyl)-5,6-dihydro-4H-pyrrolo[1,2-b]pyrazol-3-yl)imidazo[1,2-a]pyridine]",1.04 µM,0.31 µM
"Clc1cccc(-c2nn3c(c2-c2ccc4[nH]ncc4c2)CCC3)c1 [Compound 22, 5-(2-(3-Chlorophenyl)-5,6-dihydro-4H-pyrrolo[1,2-b]pyrazol-3-yl)-1H-indazole]",0.183 µM,0.0925 µM
"Clc1cccc(-c2nn3c(c2-c2ccc4cn[nH]c4c2)CCC3)c1 [Compound 23, 6-(2-(3-Chlorophenyl)-5,6-dihydro-4H-pyrrolo[1,2-b]pyrazol-3-yl)-1H-indazole]",0.24 µM,0.122 µM
"Clc1cccc(-c2nn3c(c2-c2ccc4nccn4c2)CCC3)c1 [Compound 25, 6-(2-(3-Chlorophenyl)-5,6-dihydro-4H-pyrrolo[1,2-b]pyrazol-3-yl)imidazo[1,2-a]pyridine]",0.14 µM,0.0695 µM
"Clc1cccc(-c2nn3c(c2-c2ccc4ncsc4c2)CCC3)c1 [Compound 26, 6-(2-(3-Chlorophenyl)-5,6-dihydro-4H-pyrrolo[1,2-b]pyrazol-3-yl)benzo[d]thiazole]",0.133 µM,0.067 µM
"COc1cccc(-c2nn3c(c2-c2ccc4[nH]ncc4c2)CCC3)c1 [Compound 27, 5-(2-(3-Methoxyphenyl)-5,6-dihydro-4H-pyrrolo[1,2-b]pyrazol-3-yl)-1H-indazole]",0.847 µM,0.206 µM
"COc1cccc(-c2nn3c(c2-c2ccc4cn[nH]c4c2)CCC3)c1 [Compound 28, 6-(2-(3-Methoxyphenyl)-5,6-dihydro-4H-pyrrolo[1,2-b]pyrazol-3-yl)-1H-indazole]",0.242 µM,0.0802 µM
"COc1cccc(-c2nn3c(c2-c2ccc4ncn(C)c4c2)CCC3)c1 [Compound 29, 6-(2-(3-Methoxyphenyl)-5,6-dihydro-4H-pyrrolo[1,2-b]pyrazol-3-yl)-1-methyl-1H-benzo[d]imidazole]",0.264 µM,0.106 µM
"COc1cccc(-c2nn3c(c2-c2ccc4ncsc4c2)CCC3)c1 [Compound 30, 6-(2-(3-Methoxyphenyl)-5,6-dihydro-4H-pyrrolo[1,2-b]pyrazol-3-yl)benzo[d]thiazole]",0.264 µM,0.0486 µM
"COc1ccc(-c2nn3c(c2-c2ccc4ncccc4c2)CCC3)cc1 [Compound 101, 6-(2-(4-Methoxyphenyl)-5,6-dihydro-4H-pyrrolo[1,2-b]pyrazol-3-yl)quinoline]",–,2.45 µM
